US11207313B2, “Pharmaceutical composition” (Novartis AG, priority 2017, dated 2021)

Experiments:
Type in all cases: physicochemical
[1] = Solubility of Compound A in formulations and precipitation on storage at room temperature
[2] = Precipitation of Compound A under dispersion in pH 6.5 buffer (microscope); conditions: room temperature, after at least 6 hours, all developed formulations
Excerpt: Then, the precipitation of Compound A in each formulation was controlled by microscope under dispersion in pH 6.5 buffer at room temperature.

[3] = Biopharmaceutics classification and water solubility statement
Excerpt: The design of a pharmaceutical composition, a pharmaceutical dosage form, as well as a commercially viable process to prepare the pharmaceutical composition, for a non-bile FXR agonist, such as 2-[(1R,3R,5S)-3-({5-cyclopropyl-3-[2-(trifluoromethoxy)phenyl]-1,2-oxazol-4-yl}methoxy)-8-azabicyclo[3.2.1]octan-8-yl]-4-fluoro-1,3-benzothiazole-6-carboxylic acid, or a pharmaceutically acceptable salt thereof, is especially challenging. […] For example, due to its very high potency a low dosage is needed, generating unwanted formulation issues such as content uniformity, and additional handling restrictions on a large manufacturing scale. […] Accordingly, a suitable and robust solid pharmaceutical composition overcoming the above problems needs to be developed.

## O=C(O)c1cc(F)c2nc(N3C4CCC3CC(OCc3c(-c5ccccc5OC(F)(F)F)noc3C3CC3)C4)sc2c1 [Compound A, 2-[(1R,3R,5S)-3-({5-cyclopropyl-3-[2-(trifluoromethoxy)phenyl]-1,2-oxazol-4-yl}methoxy)-8-azabicyclo[3.2.1]octan-8-yl]-4-fluoro-1,3-benzothiazole-6-carboxylic acid]
[1]; 7 days storage at room temperature, all formulations
  Precipitation after storage: no precipitation was observed
[1]; all formulations of Tables 1 to 3 combined with Compound A
  Solubility of Compound A in formulations: fully soluble
[2]
  Precipitation of Compound A under dispersion: No precipitation
[3]
  Biopharmaceutics classification system class: class IV
  Water solubility: low water solubility
